Where “and” joins values, the source holds several entries; their conditions need not be identical. Equal entries are not always repeated. Inconclusive results and toxic doses are left out. Rule as the data show it: active = T/C of 150% or more; inactive = T/C below 125%.
System: L1210 leukemia ip in BDF1 mice, survival T/C
Assay: NCI In Vivo Anticancer Drug Screen. Data for tumor model L1210 Leukemia (intraperitoneal) in B6D2F1 (BDF1) mice
Details: endpoint: mean survival time, higher = longer survival
Summary of the method: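 Value reflects the ratio of survival in compound-treated mice to survival in vehicle-treated controls, with both groups carrying the same transplanted tumor.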

[1] = dose: 50.0 mg/kg/injection, schedule: Q01DX009 (ip), vehicle: saline
[2] = dose: 100.0 mg/kg/injection, schedule: Q01DX009 (ip), vehicle: saline
[3] = dose: 100.0 mg/kg/injection, schedule: Q01DX009 (ip), vehicle: saline with Tween-80
[4] = dose: 200.0 mg/kg/injection, schedule: Q01DX009 (ip), vehicle: saline with Tween-80
[5] = dose: 400.0 mg/kg/injection, schedule: Q01DX009 (ip), vehicle: saline with Tween-80
[6] = dose: 100.0 mg/kg/injection, schedule: Q01DX001 (ip), vehicle: saline with Tween-80
[7] = dose: 100.0 mg/kg/injection, schedule: Q01DX001 (ip), vehicle: saline
[8] = dose: 200.0 mg/kg/injection, schedule: Q01DX001 (ip), vehicle: saline
[9] = dose: 400.0 mg/kg/injection, schedule: Q01DX001 (ip), vehicle: saline
[10] = dose: 100.0 mg/kg/injection, schedule: Q04DX002 (ip), vehicle: saline
[11] = dose: 200.0 mg/kg/injection, schedule: Q04DX002 (ip), vehicle: saline
[12] = dose: 100.0 mg/kg/injection, schedule: Q04DX003 (ip), vehicle: Klucel (hydroxypropylcellulose) (HPC)
[13] = dose: 100.0 mg/kg/injection, schedule: Q04DX003 (ip), vehicle: saline
[14] = dose: 200.0 mg/kg/injection, schedule: Q04DX003 (ip), vehicle: Klucel (hydroxypropylcellulose) (HPC)
[15] = dose: 200.0 mg/kg/injection, schedule: Q04DX003 (ip), vehicle: saline
[16] = dose: 400.0 mg/kg/injection, schedule: Q04DX003 (ip), vehicle: Klucel (hydroxypropylcellulose) (HPC)
[17] = dose: 100.0 mg/kg/injection, schedule: Q01DX009 (ip), vehicle: Klucel (hydroxypropylcellulose) (HPC)
[18] = dose: 200.0 mg/kg/injection, schedule: Q01DX009 (ip), vehicle: Klucel (hydroxypropylcellulose) (HPC)
[19] = dose: 400.0 mg/kg/injection, schedule: Q01DX009 (ip), vehicle: Klucel (hydroxypropylcellulose) (HPC)

Measured: T/C

COc1ccc(NC(=O)C(c2ccccc2)c2ccccc2)cc1
inactive: dose: 100.0 mg/kg/injection, schedule: Q04DX003 (ip), vehicle: saline with Tween-80 92 % of control | dose: 200.0 mg/kg/injection, schedule: Q04DX003 (ip), vehicle: saline with Tween-80 93 % of control | dose: 400.0 mg/kg/injection, schedule: Q04DX003 (ip), vehicle: saline with Tween-80 92 % of control

CC(=O)NC(CSC(=S)N(C)C)C(=O)O (stereo not drawn)
inactive: [1] 97 % of control | [2] 93 % of control | dose: 200.0 mg/kg/injection, schedule: Q01DX009 (ip), vehicle: saline 101 % of control

[Co+2].[NH-]c1ccccc1C(=O)O.[NH-]c1ccccc1C(=O)O
inactive: [3] 94 % of control | [4] 93 % of control | [5] 86 % of control

CSc1ncc(C(N)=O)c(N)n1
inactive: dose: 222.0 mg/kg/injection, schedule: Q01DX Z (ip), vehicle: saline 102 % of control | dose: 333.0 mg/kg/injection, schedule: Q01DX Z (ip), vehicle: saline 89 % of control | dose: 500.0 mg/kg/injection, schedule: Q01DX Z (ip), vehicle: saline 95 % of control

C(CCC1CCCC1)=C(CCCC1CCCC1)CCCC1CCCC1
inactive: [6] 100 % of control | dose: 200.0 mg/kg/injection, schedule: Q01DX001 (ip), vehicle: saline with Tween-80 94 % of control | dose: 400.0 mg/kg/injection, schedule: Q01DX001 (ip), vehicle: saline with Tween-80 91 % of control

CSc1nnc2scnn12
inactive: dose: 50.0 mg/kg/injection, schedule: Q01DX001 (ip), vehicle: carboxymethylcellulose (CMC) 104 % of control | dose: 100.0 mg/kg/injection, schedule: Q01DX001 (ip), vehicle: carboxymethylcellulose (CMC) 104 % of control | dose: 200.0 mg/kg/injection, schedule: Q01DX001 (ip), vehicle: carboxymethylcellulose (CMC) 101 % of control

CCCCN1C(=S)NC(C)(C)C=C1C
inactive: dose: 12.5 mg/kg/injection, schedule: Q04DX003 (ip), vehicle: saline with Tween-80 95 % of control | dose: 25.0 mg/kg/injection, schedule: Q04DX003 (ip), vehicle: saline with Tween-80 98 % of control | dose: 50.0 mg/kg/injection, schedule: Q04DX003 (ip), vehicle: saline with Tween-80 96 % of control

O=C(O)c1ccc(NC(Nc2ccc(C(=O)O)cc2)C(=O)c2ccccc2)cc1
inactive: [7] 95 % of control | [8] 89 % of control | [9] 101 % of control

O=C1NC2C=CC1/C=C\C=C/2 (stereo not drawn)
inactive: [10] 96 % of control | [11] 86 % of control

COC(=O)/C=C/C(=O)OC
inactive: dose: 25.0 mg/kg/injection, schedule: Q04DX002 (ip), vehicle: Klucel (hydroxypropylcellulose) (HPC) 97 % of control | dose: 50.0 mg/kg/injection, schedule: Q04DX002 (ip), vehicle: Klucel (hydroxypropylcellulose) (HPC) 100 % of control | dose: 100.0 mg/kg/injection, schedule: Q04DX002 (ip), vehicle: Klucel (hydroxypropylcellulose) (HPC) 103 % of control | [12] 104 % of control | [13] 101 % of control | [14] 101 % of control | [15] 107 % of control | [16] 112 % of control | dose: 400.0 mg/kg/injection, schedule: Q04DX003 (ip), vehicle: saline 103 % of control

COc1ccc(CC[N+]2=Cc3cc(OC)c(OC)cc3CC2)cc1OC
inactive: [1] 97 % of control | [2] 105 % of control | [13] 97 % of control | [15] 101 % of control

CCCCCC(=O)Nc1cccc(OC(=O)NC)c1
inactive: [3] 98 % of control | [4] 97 % of control | [5] 89 % of control

NC1NC(=O)C(CCCOc2ccc([N+](=O)[O-])cc2)C(c2ccccc2)N1 (stereo not drawn)
inactive: [17] 91 % of control | [18] 110 % of control | [19] 89 % of control

C=Cc1nc2ccccc2[nH]1 (tested in a mixture with another compound)
inactive: dose: 5.0 mg/kg/injection, schedule: Q01DX001 (ip), vehicle: saline 95 % of control | dose: 10.0 mg/kg/injection, schedule: Q01DX001 (ip), vehicle: saline 96 % of control | dose: 20.0 mg/kg/injection, schedule: Q01DX001 (ip), vehicle: saline 96 % of control | dose: 80.0 mg/kg/injection, schedule: Q01DX001 (ip), vehicle: saline 102 % of control

COC(=O)C1OC1c1ccccc1OC (stereo not drawn)
inactive: [7] 105 % of control | [8] 102 % of control | [9] 109 % of control

Cc1ccc(N=NN(C)N=Nc2ccc(C)cc2)cc1
inactive: dose: 50.0 mg/kg/injection, schedule: Q01DX001 (ip), vehicle: saline 98 % of control | [7] 95 % of control | [8] 95 % of control | [9] 93 % of control

CCOC(=O)C(c1ccccc1)(c1ccccc1)c1ccccc1
inactive: dose: 6.25 mg/kg/injection, schedule: Q01DX009 (ip), vehicle: Klucel (hydroxypropylcellulose) (HPC) 90 % of control | dose: 12.5 mg/kg/injection, schedule: Q01DX009 (ip), vehicle: Klucel (hydroxypropylcellulose) (HPC) 92 % of control | dose: 25.0 mg/kg/injection, schedule: Q01DX009 (ip), vehicle: Klucel (hydroxypropylcellulose) (HPC) 95 % of control

Cc1nc(N)[nH]c(=O)c1CCCNC(=O)c1ccc(CBr)cc1
inactive: dose: 25.0 mg/kg/injection, schedule: Q01DX001 (ip), vehicle: saline with Tween-80 95 % of control | dose: 50.0 mg/kg/injection, schedule: Q01DX001 (ip), vehicle: saline with Tween-80 88 % of control | [6] 97 % of control

O=[N+]([O-])c1c(Cl)nc2sccn12
inactive: [10] 106 % of control | [11] 109 % of control | dose: 400.0 mg/kg/injection, schedule: Q04DX002 (ip), vehicle: saline 90 % of control

CCCCOC(=O)OCNC(=O)Oc1ccc(Br)cc1Br
inactive: [17] 92 % of control | [18] 94 % of control | [19] 101 % of control

O=C(/C=C/c1ccccc1)CC(=O)c1ccccc1
inactive: dose: 100.0 mg/kg/injection, schedule: Q04DX003 (ip), vehicle: DMSO 102 % of control | dose: 200.0 mg/kg/injection, schedule: Q04DX003 (ip), vehicle: DMSO 97 % of control | dose: 400.0 mg/kg/injection, schedule: Q04DX003 (ip), vehicle: DMSO 96 % of control

COC(C)c1cnccc1/C(C)=C1/Nc2ccccc2C1=O (stereo not drawn)
inactive: dose: 50.0 mg/kg/injection, schedule: Q04DX003 (ip), vehicle: Klucel (hydroxypropylcellulose) (HPC) 95 % of control | dose: 100.0 mg/kg/injection, schedule: Q01DX001 (ip), vehicle: Klucel (hydroxypropylcellulose) (HPC) 107 % of control | [12] 100 % of control and 91 % of control | dose: 200.0 mg/kg/injection, schedule: Q01DX001 (ip), vehicle: Klucel (hydroxypropylcellulose) (HPC) 94 % of control | [14] 96 % of control | dose: 400.0 mg/kg/injection, schedule: Q01DX001 (ip), vehicle: Klucel (hydroxypropylcellulose) (HPC) 97 % of control | [16] 97 % of control

Source: PubChem BioAssay AID248 (DTP/NCI, 2004)
